Legend:
[1] = target: T1, ALK (Homo sapiens, UniProt Q9UM73); experiment: Off-chip Mobility Shift Assay, kinase inhibition; type: biochemical; details: at 10 nM; recombinant ALK
T1 construct: purchased Carna Biosciences, Inc

[2] = target: T2, FYN(isoform b) (Homo sapiens, UniProt P06241); experiment: Off-chip Mobility Shift Assay, kinase inhibition; type: biochemical; details: recombinant FYN(isoform b)
T2 construct: purchased Carna Biosciences, Inc

[3] = target: T3, AurA (Homo sapiens, UniProt O14965); experiment: Off-chip Mobility Shift Assay, kinase inhibition; type: biochemical; details: at 10 nM; recombinant AurA
T3 construct: purchased Carna Biosciences, Inc

[4] = target: T4, RAF1 (Homo sapiens, UniProt P04049, Y340D/Y341D); experiment: Off-chip Mobility Shift Assay, kinase inhibition; type: biochemical; details: recombinant RAF1; for inhibition at 0.01 µM: at 10 nM
T4 construct: purchased Carna Biosciences, Inc

[5] = target: T5, KDR (Homo sapiens, UniProt P35968); experiment: Off-chip Mobility Shift Assay, kinase inhibition; type: biochemical; details: at 10 nM; recombinant KDR
T5 construct: purchased Carna Biosciences, Inc

[6] = target: T6, KIT (Homo sapiens, UniProt P10721); experiment: Off-chip Mobility Shift Assay, kinase inhibition; type: biochemical; details: recombinant KIT; for inhibition at 0.01 µM: at 10 nM
T6 construct: purchased Carna Biosciences, Inc

[7] = target: T7, KIT(V560G) (Homo sapiens, UniProt P10721, V560G); experiment: Off-chip Mobility Shift Assay, kinase inhibition; type: biochemical; details: recombinant KIT(V560G); for inhibition at 0.01 µM: at 10 nM
T7 construct: purchased Carna Biosciences, Inc

[8] = target: T8, p38β (Homo sapiens, UniProt Q15759); experiment: Off-chip Mobility Shift Assay, kinase inhibition; type: biochemical; details: recombinant p38β; for inhibition at 0.01 µM: at 10 nM
T8 construct: purchased Carna Biosciences, Inc

[9] = target: T9, ROCK1 (Homo sapiens, UniProt Q13464); experiment: Off-chip Mobility Shift Assay, kinase inhibition; type: biochemical; details: at 10 nM; recombinant ROCK1
T9 construct: purchased Carna Biosciences, Inc

[10] = target: T10, skMLCK (Homo sapiens, UniProt Q9H1R3); experiment: Off-chip Mobility Shift Assay, kinase inhibition; type: biochemical; details: at 10 nM; recombinant skMLCK
T10 construct: purchased Carna Biosciences, Inc

[11] = target: T11, JAK1 (Homo sapiens, UniProt P23458); experiment: Off-chip Mobility Shift Assay, kinase inhibition; type: biochemical; details: at 10 nM; recombinant JAK1
T11 construct: purchased Carna Biosciences, Inc

[12] = target: T12, RET (Homo sapiens, UniProt P07949); experiment: Off-chip Mobility Shift Assay, kinase inhibition; type: biochemical; details: at 10 nM; recombinant RET
T12 construct: purchased Carna Biosciences, Inc

[13] = target: T13, EGFR (Homo sapiens, UniProt P00533); experiment: Off-chip Mobility Shift Assay, kinase inhibition; type: biochemical; details: recombinant EGFR; for inhibition at 0.01 µM: at 10 nM
T13 construct: purchased Carna Biosciences, Inc

[14] = target: T14, p38α (Homo sapiens, UniProt Q16539); experiment: Off-chip Mobility Shift Assay, kinase inhibition; type: biochemical; details: recombinant p38α; for inhibition at 0.01 µM: at 10 nM
T14 construct: purchased Carna Biosciences, Inc

[15] = target: T15, HER2 (Homo sapiens, UniProt P04626); experiment: Off-chip Mobility Shift Assay, kinase inhibition; type: biochemical; details: recombinant HER2; for inhibition at 0.01 µM: at 10 nM
T15 construct: purchased Carna Biosciences, Inc

[16] = target: T16, JAK2 (Homo sapiens, UniProt O60674); experiment: Off-chip Mobility Shift Assay, kinase inhibition; type: biochemical; details: at 10 nM; recombinant JAK2
T16 construct: purchased Carna Biosciences, Inc

[17] = target: T17, KIT(D816E) (Homo sapiens, UniProt P10721, D816E); experiment: Off-chip Mobility Shift Assay, kinase inhibition; type: biochemical; details: at 10 nM; recombinant KIT(D816E)
T17 construct: purchased Carna Biosciences, Inc

[18] = target: T18, YES(T348I) (Homo sapiens, UniProt P07947, T348I); experiment: Off-chip Mobility Shift Assay, kinase inhibition; type: biochemical; details: recombinant YES(T348I)
T18 construct: purchased Carna Biosciences, Inc

[19] = target: T19, BRAF (Homo sapiens, UniProt P15056); experiment: Off-chip Mobility Shift Assay, kinase inhibition; type: biochemical; details: recombinant BRAF; for inhibition at 0.01 µM: at 10 nM
T19 construct: purchased Carna Biosciences, Inc

[20] = target: T20, MST1 (Homo sapiens, UniProt Q13043); experiment: Off-chip Mobility Shift Assay, kinase inhibition; type: biochemical; details: at 10 nM; recombinant MST1
T20 construct: purchased Carna Biosciences, Inc

[21] = Pharmacokinetics in Sprague-Dawley rats, 2-in-1 dosing; type: in vivo; details: rat; for V: intravenous 1 mg/kg
Method: Sprague-Dawley rats (approximate weight 275-300 g, N=3) were dosed intravenously at 5 mL/kg and orally at 10 mL/kg with the above dosing solutions. Blood samples were collected into tubes containing EDTA as the anticoagulant at 0, 0.25 (intravenous only), 0.5, 1, 2, 4, 8, 10, and 24 h post-dosing, and plasma samples were prepared by centrifugation. The plasma samples were mixed with 3× volumes of acetonitrile containing 100 nM reserpine as the internal standard, and centrifuged at 4000 RPM for 15 min. The supernatants were injected for LC/MS analysis which were carried out on a AB Sciex 4000 Q Trap LC/MS/MS system coupled with Shimadzu Prominence UFLCXR 20 series (including a CBM-20A controller, two LC-20ADXR solvent delivery units, SIL-20AC HT autosampler, CTO-20A column oven, and a SPD-20A UV detector). The samples were separated on a Phenomenex Columbus column (C18, 4 μm, 50×2 mm) eluted with two solvent systems: 2 mM ammonium acetate in water containing 0.1% formic acid (A) and methanol (B) at a linear gradient starting with 25% B. Electrospray ionization in positive mode was used to acquire LC/MS/MS data.

[22] = Lung tissue and plasma concentration ratios in mice; type: in vivo, CD-1 mouse; details: single oral dose 5 mg/kg, 2-in-1 with dasatinib, all time points tested
Method: CD-1 mouse (approximate weight 30 g, N=3) were dosed by oral gavage at 10 mL/kg. Blood samples were collected into tubes containing EDTA as the anticoagulant at 1, 2, 4, 10 h post-dosing for Compound X, and predose, 1, 2, 3, 8, 10 and 24 h post-dosing for Compound XI. The plasma samples were prepared by centrifugation. Lung samples were also collected at each of the above time points. The lung samples were homogenated in 4× distilled water (v/w). The plasma samples and the homogenated lung tissue samples were mixed with 3× volumes of acetonitrile containing 100 nM reserpine as the internal standard, and centrifuged at 4000 RPM for 15 min. The supernatants were injected for LC/MS analysis which were carried out on a AB Sciex 4000 Q Trap LC/MS/MS system coupled with Shimadzu Prominence UFLCXR 20 series (including a CBM-20A controller, two LC-20ADXR solvent delivery units, SIL-20AC HT autosampler, CTO-20A column oven, and a SPD-20A UV detector). The samples were separated on a Phenomenex Columbus column (C18, 4 μm, 50×2 mm) eluted with two solvent systems: 2 mM ammonium acetate in water containing 0.1% formic acid (A) and methanol (B) at a linear gradient starting at 25%. Electrospray ionization in positive mode was used to acquire LC/MS/MS data.

[23] = Table 2, co-dosed with compound IV
[24] = Table 3, co-dosed with compound X

T13 sequence (P00533 25-1210): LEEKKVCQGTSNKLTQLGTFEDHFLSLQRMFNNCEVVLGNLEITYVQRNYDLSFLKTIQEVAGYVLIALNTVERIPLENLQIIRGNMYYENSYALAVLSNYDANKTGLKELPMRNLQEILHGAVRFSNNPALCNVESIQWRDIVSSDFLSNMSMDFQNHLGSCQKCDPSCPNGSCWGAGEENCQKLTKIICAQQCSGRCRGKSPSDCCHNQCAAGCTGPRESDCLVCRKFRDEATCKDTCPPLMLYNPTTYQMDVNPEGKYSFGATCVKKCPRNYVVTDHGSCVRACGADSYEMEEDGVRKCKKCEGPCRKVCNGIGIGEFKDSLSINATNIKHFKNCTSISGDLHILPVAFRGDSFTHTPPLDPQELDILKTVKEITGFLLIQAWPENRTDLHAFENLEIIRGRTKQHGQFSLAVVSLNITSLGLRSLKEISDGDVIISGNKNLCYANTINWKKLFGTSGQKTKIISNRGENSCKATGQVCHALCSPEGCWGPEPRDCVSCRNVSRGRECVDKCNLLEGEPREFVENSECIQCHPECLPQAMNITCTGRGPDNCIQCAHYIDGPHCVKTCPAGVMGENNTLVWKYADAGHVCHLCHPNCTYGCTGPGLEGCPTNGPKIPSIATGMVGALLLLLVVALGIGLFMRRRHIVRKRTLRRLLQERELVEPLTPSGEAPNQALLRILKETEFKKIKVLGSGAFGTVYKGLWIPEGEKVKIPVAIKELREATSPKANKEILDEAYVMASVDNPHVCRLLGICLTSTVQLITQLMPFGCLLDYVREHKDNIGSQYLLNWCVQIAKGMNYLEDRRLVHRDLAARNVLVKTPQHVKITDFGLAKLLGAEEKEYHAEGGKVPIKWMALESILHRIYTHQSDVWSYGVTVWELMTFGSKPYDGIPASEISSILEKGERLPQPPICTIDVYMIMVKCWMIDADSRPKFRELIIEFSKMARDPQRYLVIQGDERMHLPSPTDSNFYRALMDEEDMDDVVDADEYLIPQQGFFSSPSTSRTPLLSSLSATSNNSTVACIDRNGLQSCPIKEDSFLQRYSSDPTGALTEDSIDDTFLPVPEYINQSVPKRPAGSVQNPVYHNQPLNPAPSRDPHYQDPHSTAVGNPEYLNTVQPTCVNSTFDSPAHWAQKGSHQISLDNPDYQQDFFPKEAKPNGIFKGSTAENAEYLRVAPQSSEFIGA
T19 sequence (P15056 whole entry): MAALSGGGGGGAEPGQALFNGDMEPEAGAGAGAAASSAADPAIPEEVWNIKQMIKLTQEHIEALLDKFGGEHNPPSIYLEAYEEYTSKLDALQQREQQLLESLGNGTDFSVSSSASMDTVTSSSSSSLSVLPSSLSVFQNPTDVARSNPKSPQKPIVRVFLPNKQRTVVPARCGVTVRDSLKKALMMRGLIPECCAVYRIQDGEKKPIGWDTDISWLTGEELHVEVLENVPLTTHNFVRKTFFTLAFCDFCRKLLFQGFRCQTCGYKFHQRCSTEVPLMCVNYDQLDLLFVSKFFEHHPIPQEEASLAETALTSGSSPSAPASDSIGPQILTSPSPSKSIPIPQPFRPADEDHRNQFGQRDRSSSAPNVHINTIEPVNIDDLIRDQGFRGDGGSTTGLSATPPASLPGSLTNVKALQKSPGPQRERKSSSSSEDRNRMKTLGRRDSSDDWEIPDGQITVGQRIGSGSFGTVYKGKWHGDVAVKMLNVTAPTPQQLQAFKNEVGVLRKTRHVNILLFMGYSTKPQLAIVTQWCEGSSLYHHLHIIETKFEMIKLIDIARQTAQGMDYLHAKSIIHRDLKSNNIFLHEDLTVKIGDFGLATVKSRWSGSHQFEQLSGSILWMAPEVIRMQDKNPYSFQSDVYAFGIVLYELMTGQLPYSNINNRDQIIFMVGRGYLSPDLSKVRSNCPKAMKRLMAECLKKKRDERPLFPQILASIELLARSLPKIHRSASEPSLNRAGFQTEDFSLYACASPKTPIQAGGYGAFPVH
T4 sequence (P04049 306-648 Y340D/Y341D limits assumed): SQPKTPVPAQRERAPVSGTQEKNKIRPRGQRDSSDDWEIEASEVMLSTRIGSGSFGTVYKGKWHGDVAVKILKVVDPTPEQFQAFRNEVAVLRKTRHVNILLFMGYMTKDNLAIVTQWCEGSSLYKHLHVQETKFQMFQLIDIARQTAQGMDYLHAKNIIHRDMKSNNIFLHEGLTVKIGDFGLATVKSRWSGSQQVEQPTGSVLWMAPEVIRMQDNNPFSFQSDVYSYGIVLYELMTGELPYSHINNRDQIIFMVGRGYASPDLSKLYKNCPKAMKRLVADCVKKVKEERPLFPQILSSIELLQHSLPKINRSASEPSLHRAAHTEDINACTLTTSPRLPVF
T15 sequence (P04626 23-1255): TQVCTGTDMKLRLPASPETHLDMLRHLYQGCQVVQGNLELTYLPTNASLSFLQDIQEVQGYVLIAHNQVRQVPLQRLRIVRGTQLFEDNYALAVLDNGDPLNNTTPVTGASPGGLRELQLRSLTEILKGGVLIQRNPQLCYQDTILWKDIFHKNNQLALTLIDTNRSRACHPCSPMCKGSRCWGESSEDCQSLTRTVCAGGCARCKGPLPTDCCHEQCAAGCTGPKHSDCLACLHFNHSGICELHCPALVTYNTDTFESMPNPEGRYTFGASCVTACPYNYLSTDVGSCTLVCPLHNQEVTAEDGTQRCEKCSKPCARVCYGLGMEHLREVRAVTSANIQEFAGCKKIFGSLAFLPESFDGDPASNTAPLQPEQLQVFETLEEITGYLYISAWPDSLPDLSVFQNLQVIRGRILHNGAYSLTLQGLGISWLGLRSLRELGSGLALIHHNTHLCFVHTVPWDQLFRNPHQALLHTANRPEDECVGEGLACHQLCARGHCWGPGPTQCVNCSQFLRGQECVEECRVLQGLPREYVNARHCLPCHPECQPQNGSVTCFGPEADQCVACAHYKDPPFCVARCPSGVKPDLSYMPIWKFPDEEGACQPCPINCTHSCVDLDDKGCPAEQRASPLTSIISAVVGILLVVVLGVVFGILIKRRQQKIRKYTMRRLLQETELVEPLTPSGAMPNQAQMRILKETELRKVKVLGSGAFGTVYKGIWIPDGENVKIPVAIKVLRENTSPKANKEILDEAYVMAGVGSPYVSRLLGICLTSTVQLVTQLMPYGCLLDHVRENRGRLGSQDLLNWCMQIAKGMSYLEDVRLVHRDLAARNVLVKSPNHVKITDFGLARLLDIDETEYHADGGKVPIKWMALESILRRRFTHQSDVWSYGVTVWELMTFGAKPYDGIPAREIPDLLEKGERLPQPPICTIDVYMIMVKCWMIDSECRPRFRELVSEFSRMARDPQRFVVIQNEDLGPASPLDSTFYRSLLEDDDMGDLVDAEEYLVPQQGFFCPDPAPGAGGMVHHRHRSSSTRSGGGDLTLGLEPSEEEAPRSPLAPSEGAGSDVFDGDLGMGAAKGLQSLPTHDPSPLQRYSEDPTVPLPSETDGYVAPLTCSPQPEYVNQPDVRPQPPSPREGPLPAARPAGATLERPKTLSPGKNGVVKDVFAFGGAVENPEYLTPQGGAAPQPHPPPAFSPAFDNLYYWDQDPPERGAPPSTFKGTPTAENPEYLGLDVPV
T6 sequence (P10721 26-976): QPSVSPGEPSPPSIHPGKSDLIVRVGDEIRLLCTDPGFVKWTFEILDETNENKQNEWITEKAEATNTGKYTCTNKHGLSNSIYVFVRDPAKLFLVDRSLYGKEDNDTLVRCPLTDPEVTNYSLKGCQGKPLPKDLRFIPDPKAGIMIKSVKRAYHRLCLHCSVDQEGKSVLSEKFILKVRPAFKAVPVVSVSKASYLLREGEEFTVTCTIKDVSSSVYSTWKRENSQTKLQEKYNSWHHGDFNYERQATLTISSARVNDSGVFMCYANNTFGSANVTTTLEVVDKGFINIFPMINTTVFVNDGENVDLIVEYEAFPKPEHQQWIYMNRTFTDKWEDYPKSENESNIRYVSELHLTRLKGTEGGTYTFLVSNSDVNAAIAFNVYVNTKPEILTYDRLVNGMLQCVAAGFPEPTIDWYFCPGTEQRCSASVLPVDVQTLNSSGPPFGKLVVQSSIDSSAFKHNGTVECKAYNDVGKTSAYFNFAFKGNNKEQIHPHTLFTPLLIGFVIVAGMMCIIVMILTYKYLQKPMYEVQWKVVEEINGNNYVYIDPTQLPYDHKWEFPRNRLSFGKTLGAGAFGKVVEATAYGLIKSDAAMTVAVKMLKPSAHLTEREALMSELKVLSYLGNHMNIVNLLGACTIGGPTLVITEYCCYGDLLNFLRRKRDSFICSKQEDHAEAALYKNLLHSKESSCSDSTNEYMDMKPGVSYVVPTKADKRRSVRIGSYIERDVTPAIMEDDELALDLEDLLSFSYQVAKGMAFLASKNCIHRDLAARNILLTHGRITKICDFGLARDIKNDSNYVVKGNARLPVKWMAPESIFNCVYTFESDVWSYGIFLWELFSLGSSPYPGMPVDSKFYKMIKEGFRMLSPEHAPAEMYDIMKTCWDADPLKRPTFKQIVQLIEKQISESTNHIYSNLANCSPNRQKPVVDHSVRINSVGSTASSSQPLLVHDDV
T8 sequence (Q15759 whole entry): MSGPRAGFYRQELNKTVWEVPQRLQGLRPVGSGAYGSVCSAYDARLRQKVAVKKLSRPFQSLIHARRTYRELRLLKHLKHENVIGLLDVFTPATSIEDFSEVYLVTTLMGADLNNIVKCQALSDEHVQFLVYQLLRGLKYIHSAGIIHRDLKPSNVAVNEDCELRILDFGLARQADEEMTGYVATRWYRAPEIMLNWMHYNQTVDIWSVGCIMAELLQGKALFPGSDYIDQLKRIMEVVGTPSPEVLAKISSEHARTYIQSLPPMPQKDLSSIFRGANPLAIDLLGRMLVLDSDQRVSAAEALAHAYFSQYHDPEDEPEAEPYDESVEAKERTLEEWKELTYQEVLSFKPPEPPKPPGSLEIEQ
T7 sequence (P10721 26-976 V560G): as the sequence (P10721 26-976) above, with V535G counted along it
T17 sequence (P10721 26-976 D816E): as the sequence (P10721 26-976) above, with D791E counted along it

[2H]c1cc(C)c(NC(=O)c2cnc(Nc3cc(N4CCCCC4)nc(C)n3)s2)c(Cl)c1 [Compound I, N-(2-chloro-4-deuterio-6-methyl-phenyl)-2-[[2-methyl-6-(1-piperidyl)pyrimidin-4-yl]amino]thiazole-5-carboxamide]
inhibition at 0.01 µM [1]: < 50% | inhibition at 0.01 µM ([2]; at 10 nM): > 50% | inhibition at 0.01 µM [3]: < 50% | inhibition at 0.01 µM [4]: < 50% | inhibition at 0.01 µM [5]: < 50% | inhibition at 0.01 µM [6]: < 50% | inhibition at 0.01 µM [7]: < 50% | inhibition at 0.01 µM [8]: < 50% | inhibition at 0.01 µM [9]: < 50% | inhibition at 0.01 µM [10]: < 50% | inhibition at 0.01 µM [11]: < 50% | inhibition at 0.01 µM [12]: < 50% | inhibition at 0.01 µM [13]: < 50% | inhibition at 0.01 µM [14]: < 50% | inhibition at 0.01 µM [15]: < 50% | inhibition at 0.01 µM [16]: < 50% | inhibition at 0.01 µM [17]: < 50% | inhibition at 0.01 µM ([18]; at 10 nM): < 50% | inhibition at 0.01 µM [19]: < 50% | inhibition at 0.01 µM [20]: < 50%

[2H]c1cc(C)c(NC(=O)c2cnc(Nc3cc(N4CCC(O)CC4)nc(C)n3)s2)c(Cl)c1 [Compound II, N-(2-chloro-4-deuterio-6-methyl-phenyl)-2-[[6-(4-hydroxy-1-piperidyl)-2-methyl-pyrimidin-4-yl]amino]thiazole-5-carboxamide]
inhibition at 0.001 µM ([2]; at 1 nM): > 50% | inhibition at 0.001 µM ([4]; at 1 nM): < 50% | inhibition at 0.01 µM [4]: < 50% | inhibition at 0.1 µM ([4]; at 100 nM): < 50% | inhibition at 0.001 µM ([6]; at 1 nM): < 50% | inhibition at 0.01 µM [6]: > 50% | inhibition at 0.1 µM ([6]; at 100 nM): > 50% | inhibition at 0.001 µM ([7]; at 1 nM): < 50% | inhibition at 0.01 µM [7]: > 50% | inhibition at 0.1 µM ([7]; at 100 nM): > 50% | inhibition at 0.001 µM ([8]; at 1 nM): < 50% | inhibition at 0.01 µM [8]: < 50% | inhibition at 0.1 µM ([8]; at 100 nM): < 50% | inhibition at 0.001 µM ([13]; at 1 nM): < 50% | inhibition at 0.01 µM [13]: < 50% | inhibition at 0.1 µM ([13]; at 100 nM): > 50% | inhibition at 0.001 µM ([14]; at 1 nM): < 50% | inhibition at 0.01 µM [14]: < 50% | inhibition at 0.1 µM ([14]; at 100 nM): < 50% | inhibition at 0.001 µM ([15]; at 1 nM): < 50% | inhibition at 0.01 µM [15]: < 50% | inhibition at 0.1 µM ([15]; at 100 nM): < 50% | inhibition at 0.001 µM ([18]; at 1 nM): < 50% | inhibition at 0.001 µM ([19]; at 1 nM): < 50% | inhibition at 0.01 µM [19]: < 50% | inhibition at 0.1 µM ([19]; at 100 nM): < 50%

[2H]c1cc(C)c(NC(=O)c2cnc(Nc3cc(N4CC[C@H](O)C4)nc(C)n3)s2)c(Cl)c1 [Compound IV, N-(2-chloro-4-deutero-6-methylphenyl)-2-[[2-methyl-6-((S)-3-hydroxypyrrolidin-1-yl)pyrimidin-4-yl]amino]thiazole-5-carboxamide]
intravenous plasma clearance compared to dasatinib and compound III [21]: much lower intravenous plasma clearance | intravenous volume of distribution compared to dasatinib and compound III [21]: significantly lower intravenous volume of distribution values | V [21, 23]: 1 ± 0 L/kg

[2H]c1cc(C)c(NC(=O)c2cnc(Nc3cc(N4CC[C@@H](O)C4)nc(C)n3)s2)c(Cl)c1 [Compound V, N-(2-chloro-4-deutero-6-methylphenyl)-2-[[2-methyl-6-((R)-3-hydroxypyrrolidin-1-yl)pyrimidin-4-yl]amino]thiazole-5-carboxamide]
intravenous plasma clearance compared to dasatinib and compound III [21]: much lower intravenous plasma clearance | intravenous volume of distribution compared to dasatinib and compound III [21]: significantly lower intravenous volume of distribution values | V [21, 23]: 1 ± 0 L/kg

Cc1nc(Nc2ncc(C(=O)Nc3c(C)cccc3Cl)s2)cc(N2CC[C@H](O)C2)n1 [Compound X, N-(2-chloro-6-methylphenyl)-2-[[2-methyl-6-((S)-3-hydroxypyrrolidin-1-yl)pyrimidin-4-yl]amino]thiazole-5-carboxamide]
F, percent oral bioavailability ([21]; PO 5 mg/kg versus intravenous 1 mg/kg, AUCinf dose normalized, Table 3): 18.9±2% | intravenous plasma clearance compared to dasatinib and compound III [21]: much lower intravenous plasma clearance | intravenous volume of distribution compared to dasatinib and compound III [21]: significantly lower intravenous volume of distribution values | V [21, 24]: 1 ± 0 L/kg | ratio of lung tissue concentration to plasma concentration, compared to dasatinib [22]: significantly lower ratios

Cc1nc(Nc2ncc(C(=O)Nc3c(C)cccc3Cl)s2)cc(N2CC[C@@H](O)C2)n1 [Compound XI, N-(2-chloro-6-methylphenyl)-2-[[2-methyl-6-((R)-3-hydroxypyrrolidin-1-yl)pyrimidin-4-yl]amino]thiazole-5-carboxamide]
intravenous plasma clearance compared to dasatinib and compound III [21]: much lower intravenous plasma clearance | intravenous volume of distribution compared to dasatinib and compound III [21]: significantly lower intravenous volume of distribution values | V [21, 24]: 1 ± 0 L/kg | ratio of lung tissue concentration to plasma concentration, compared to dasatinib [22]: significantly lower ratios

Reference: patent publication US10479786B2, “Protein kinase inhibitors” (Princeton Drug Discovery Inc, priority 2016, dated 2019)
